The subject of assay [1] is MeV-Alaska. Put plainly: Virus yield reduction assay, MeV. Format: cell-based, measles virus. As to conditions: for EC50: Measles morbillivirus.
The test system of another assay is influenza A/WSN (H1N1). Put plainly: microbe, parasite or virus in culture. In kind it is cell-based. Particulars: read-out: EC50, reduction of virus yield (WSN).
The subject of a further assay is HPIV3. Put plainly: Virus yield reduction assay, HPIV3. Format: cell-based, human parainfluenzavirus type 3. Particulars: Human respirovirus 3.
Assay [2] has as its system MeV-Alaska. Put plainly: Viral CPE-reduction assay.
Experimental: To rapidly pre-screen small libraries of compound analogs for antiviral activity, Vero-SLAM cells were infected with MeV-Alaska in four replicates per compound concentration in a 96-well plate format at an MOI of 0.4 pfu/cell in the presence of the inhibitor analyzed ranging from 75 μM to 293 nM in two-fold dilutions. At 96 hours post-infection, cell monolayers were subjected to crystal violet staining (0.1% crystal violet in 20% ethanol), and the absorbance of dried plates at 560 nm determined. Virus-induced cytopathicity was then calculated according to the formula [% rel. CPE=100-(experimental-minimum)/(maximum-minimum)*100], with minimum referring to infected, vehicle-treated wells and maximum to mock-infected wells.
For assay [3], the system named is MeV-Alaska. Put plainly: Antiviral activity of compound analogs against MeV-Alaska (tables 1-5). In kind it is cell-based, measles virus.
The mark [4] stands for this setting: Measles morbillivirus, read-out: EC50, suppression of viral cytopathic effect (CPE), CPE.

These results are taken from patent publication US9365523B2, “Imidazolyl amide compounds and uses related thereto” (priority 2011, dated 2016).

Each structure is given as a SMILES string. Where only a bound is given, the exact number is not on record here.

Broadly, the EC50 is the concentration at which the effect is half-maximal. Consider `COc1ccc(-n2c(S[C@@H](C)C(=O)Nc3ccc(C)cc3Cl)nc3ccccc32)cc1`, for which the results for the EC50 with MeV-Alaska [1] (MeV), in the assay on influenza A/WSN (H1N1) and in the assay with HPIV3 were 37.3 nM, 5 nM and 80 nM, respectively.
As to `COc1ccc(-n2c(SC(CCO)C(=O)Nc3ccccc3)nc3ccccc32)cc1` (stereo not shown), the EC50 in the assay on MeV-Alaska [2] (setting [4]) came out at 27800 nM.
Same read-out and setting: to `Cc1ccc(NC(=O)C(C)Sc2nc3ccccc3n2-c2ccc(CO)cc2)c(Cl)c1` (stereo not shown) [drawing 229] belongs 3910 nM; to `COc1ccc(-n2c(SC(C)C(=O)Nc3ccc(C)cc3Cl)nc3cccnc32)cc1` (stereo not shown) [drawing 227], 1650 nM; to `Cc1ccc(NC(=O)C(C)Sc2nc3ccccc3n2-c2ccc(CCNCCN3CCOCC3)cc2)c(Cl)c1` (stereo not shown), 1910 nM.
On the same count and under the same terms, to `Cc1ccc(NC(=O)C(C)Sc2nc3ccccc3n2CCN2CCN(C(=O)OC(C)(C)C)CC2)c(Cl)c1` (stereo not shown) belongs 1320 nM; to `CNCCc1ccc(-n2c(SC(C)C(=O)Nc3ccc(C)cc3Cl)nc3ccccc32)cc1` (stereo not shown) [drawing 226], 8720 nM.
Take `Cc1ccc(NC(=O)[C@H](C)Sc2nc3ccccc3n2-c2cccc(CCN3CCOCC3)c2)c(Cl)c1`: the EC50 came to 10.8 nM with MeV-Alaska [1] (MeV), 1.5 nM in the assay on influenza A/WSN (H1N1) and 16 nM in the assay on HPIV3.
Consider `Cc1ccc(NC(=O)C(C)Sc2nc3ccccc3n2CCN2CCN(C(C)c3ccc(F)cc3)CC2)c(Cl)c1` (stereo not shown), for which the EC50 in the assay with MeV-Alaska [2] (setting [4]) turned out to be 2170 nM.
On the same count and under the same terms, to `Cc1ccc(NC(=O)C(C)Sc2nc3ccccc3n2-c2cccc(CCN3CCCCC3)c2)c(Cl)c1` (stereo not shown) belongs 1520 nM.
Take `CCN1CCCC1Cn1c(SC(C)C(=O)Nc2ccc(C)cc2Cl)nc2ccccc21` (stereo not shown) [drawing 215]: in the assay with MeV-Alaska [2] (read-out: EC50, suppression of viral cytopathic effect (CPE), CPE), the EC50 was 5520 nM.
On to `Cc1ccc(NC(=O)[C@H](C)Sc2nc3ccccc3n2-c2ccccc2CN2CCN(C)CC2)c(Cl)c1`, for which the EC50 worked out at 685 nM with MeV-Alaska [1] (MeV), 4 nM in the assay on influenza A/WSN (H1N1) and 16 nM in the assay on HPIV3.
`O=C1Cc2c([nH]c3ccc([N+](=O)[O-])cc23)-c2ccccc2N1` [Alsterpaullone, reference compound]: in the assay with MeV-Alaska [1] (highest concentration assessed (50 μM), Vero-Slam cells), the “reduction in MeV yields” value was “only a marginal reduction”.
`COc1ccc(-n2c(SC(C)C(=O)Nc3ncc(Cl)cc3Cl)nc3ccccc32)cc1` (stereo not shown) [Compound 1] had an EC50 in the assay on MeV-Alaska [3] (Table 1) of 300 nM.
Still for that read-out and setting: to `COc1ccc(-n2c(SC(C)C(=O)Nc3nc(C)nc(C)c3Cl)nc3ccccc32)cc1` (stereo not shown) [Compound 30] belongs more than 75000 nM.
`COc1ccc(-n2c(S(=O)(=O)CC(=O)Nc3ccc(C)cc3Cl)nc3ccccc32)cc1` [Compound 141] yielded an EC50 in the assay with MeV-Alaska [3] (Measles morbillivirus, Table 5) of more than 75000 nM.
For the compound `COc1ccc(-n2c(SC(C)C(=O)Nc3ccccc3C)nc3ccccc32)cc1` (stereo not shown) [Compound 15], the response with MeV-Alaska [3] (Table 1) was half-maximal at 1140 nM (EC50).
Turning to `COc1ccc(-n2c(SC(C)C(=O)Nc3ccc(Cl)c(C)c3)nc3ccccc32)cc1` (stereo not shown) [Compound 40], the EC50 in the assay with MeV-Alaska [3] (Table 1) came to 6700 nM.
For the compound `Cc1ccc(NC(=O)CSc2nc3cc(C)c(C)cc3n2Cc2ccc(F)cc2)c(Cl)c1` [Compound 144], the EC50 in the assay on MeV-Alaska [3] (Measles morbillivirus, Table 5) is more than 75000 nM.
Turning to `Cc1ccc(NC(=O)C(C)Sc2nc3ccccc3n2C2CCN(C)CC2)c(Cl)c1` (stereo not shown) [drawing 218], in the assay on MeV-Alaska [2] (setting [4]), the EC50 was found to be 1500 nM.
Consider `Cc1nnc(NC(=O)C(C)Sc2nc3ccccc3n2-c2ccc(F)cc2)nc1C` (stereo not shown) [Compound 106], for which the EC50 in the assay on MeV-Alaska [3] (Table 3) amounted to 23000 nM.
Same read-out and setting: to `CC(Sc1nc2ccccc2n1-c1ccc(F)cc1)C(=O)Nc1ncc(Cl)cc1Cl` (stereo not shown) [Compound 101] belongs 300 nM.
In turn, `CCOC(=O)c1ccc2[nH]c(SC(C)C(=O)Nc3ccc(C)cc3Cl)nc2c1` (stereo not shown) [Compound 126] displayed an EC50 in the assay with MeV-Alaska [3] (Measles morbillivirus, Table 5) of more than 75000 nM.
Still for that read-out and setting: the figure for `COc1ccc(-n2ccnc2SC(C)C(=O)Nc2ncc(Cl)cc2Cl)cc1` (stereo not shown) [Compound 132] is more than 75000 nM.
In the assay with MeV-Alaska [3] (Table 1), `COc1ccc(-n2c(SC(C)C(=O)Nc3nc(C)c(C)s3)nc3ccccc32)cc1` (stereo not shown) [Compound 54] yielded an EC50 of 2500 nM.
Turning to `COc1ccc(-n2c(SC(C)C(=O)Nc3ccc(C)cc3Cl)nc3ccccc32)cc1` (stereo not shown) [drawing 253], the EC50 is 13.2 nM with influenza A/WSN (H1N1) and 80 nM in the assay with HPIV3.
In the assay with MeV-Alaska [3] (Table 1), `COc1ccc(-n2c(SC(C)C(=O)Nc3ccc(C)cc3C)nc3ccccc32)cc1` (stereo not shown) [Compound 45] returned an EC50 of 1100 nM.
The same measure, in the same setting: the figure for `COc1ccc(-n2c(SC(C)C(=O)Nc3c(Cl)cccc3Cl)nc3ccccc32)cc1` (stereo not shown) [Compound 28] is 2000 nM.
For `Cc1ccc(NC(=O)C(C)Sc2nc3ccccc3n2[C@H]2CC[C@H](O)CC2)c(Cl)c1` (stereo partly shown), in the assay on MeV-Alaska [2] (setting [4]), the EC50 turned out to be 2740 nM.
Compound `Cc1ccc(NC(=O)C(C)Sc2nc3ccccc3n2-c2cccc(CO)c2)c(Cl)c1` (stereo not shown) [Compound 80] had an EC50 with MeV-Alaska [3] (Table 2) of 700 nM.
In the case of `Cc1ccc(NC(=O)C(C)Sc2nc3ccccc3n2CCN2CCNCC2)c(Cl)c1` (stereo not shown), the EC50 in the assay on MeV-Alaska [2] (setting [4]) is more than 75000 nM.
Turning to `COc1ccc(-n2c(SC(C)C(=O)Nc3cc(C)nn3C)nc3ccccc32)cc1` (stereo not shown) [Compound 18], it took 900 nM to reach a half-maximal effect in the assay on MeV-Alaska [3] (Table 1) (EC50).
`COc1ccc(Cn2c(NC(C)C(=O)Nc3ccc(C)cc3Cl)nc3ccccc32)cc1` (stereo not shown) [Compound 127]: the EC50 in the assay with MeV-Alaska [3] (Measles morbillivirus, Table 5) was more than 75000 nM.
Regarding `Cc1ccc(NC(=O)C(C)Sc2nc3ccccc3n2-c2ccccc2CN2CCN(C)CC2)c(Cl)c1` (stereo not shown) [drawing 259], the values for the EC50 with MeV-Alaska [1] and in the assay with influenza A/WSN (H1N1) were 40.8 nM and 8 nM, respectively.
As for `COc1ccc(-n2c(SC(C)C(=O)Nc3ccc(Cl)c(Cl)c3)nc3ccccc32)cc1` (stereo not shown) [Compound 48], the EC50 in the assay on MeV-Alaska [3] (Table 1) was found to be 7300 nM.
